Usually melting point stands for the temperature, or range, at which the solid turns liquid.

Results on 60 compounds are retold here after US20060122181A1, “Heteroaromatic pentacyclic compound and medicinal use thereof” (Japan Tobacco Inc., priority 2003, published 2006).

Compound `CCC(CC)c1ccc(COc2ccc(-c3csc(CN(CC(=O)O)Cc4ccc(C(F)(F)F)cc4)n3)cc2)cc1` [Example 3-16] returned a melting point of 136 to 138 °C.
For `CCC(CC)c1ccc(COc2ccc(-c3csc(CN(CC(=O)O)Cc4ccc(Cl)cc4)n3)cc2)cc1` [Example 3-17], the melting point lay within 154 to 157 °C.
Consider `CCC(CC)c1ccc(COc2ccc(-c3csc(CN(CC(=O)O)Cc4cc(C)cc(C)c4)n3)cc2)cc1` [Example 3-18], for which the melting point is 114 to 119 °C.
For the compound `CCCC(CCC)c1ccc(COc2ccc(-c3csc(CN(CC(=O)O)Cc4ccccn4)n3)cc2)cc1` [Example 3-19], the melting point is 155 to 156 °C.
On to `CCC(CC)c1ccc(COc2ccc(-c3csc(CN(CC(=O)O)Cc4ccccn4)n3)cc2)cc1` [Example 3-20], for which the melting point lay within 156 to 157 °C.
To `CCCC(CCC)c1ccc(COc2ccc(-c3csc(CN(CC(=O)O)C(=O)c4ccccc4)n3)cc2)cc1` [Example 3-22] belongs 141 to 144 °C; to `CCC(CC)c1ccc(COc2ccc(-c3csc(CN(CC(=O)O)C(=O)c4ccc(C)cc4)n3)cc2)cc1` [Example 3-23], 142 to 144 °C; to `CCCC(CCC)c1ccc(COc2ccc(-c3csc(CN(CC(=O)O)C(=O)c4ccc(OC)cc4)n3)cc2)cc1` [Example 3-24], 99 to 101 °C.
For the compound `CN(Cc1ccc(CC(C)(C)C)cc1)c1ccc(-c2csc(CN(CC(=O)O)Cc3ccccc3)n2)cc1` [Example 3-27], the melting point is 159 to 160 °C.
For the compound `CN(C[C@H]1CC[C@H](c2ccc(C(C)(C)C)cc2)CC1)c1ccc(-c2csc(CN(CC(=O)O)Cc3ccccc3)n2)cc1` [Example 3-28], the melting point is 192 to 195 °C.
In turn, `CN(CCc1ccc(CC(C)(C)C)cc1)c1ccc(-c2csc(CN(CC(=O)O)Cc3ccccc3)n2)cc1` [Example 3-31] came in with a melting point of 133 to 134 °C.
Compound `CN(Cc1ccc(C2CCC(F)CC2)cc1)c1ccc(-c2csc(CN(CC(=O)O)Cc3ccccc3)n2)cc1` (stereo not drawn) [Example 3-33] gave a melting point of 146 to 147 °C.
To `CN(Cc1ccc(-c2ccccc2)cc1)c1ccc(-c2csc(CN(CC(=O)O)Cc3ccccc3)n2)cc1` [Example 3-37] belongs 167 to 170 °C; to `CC(C)Cc1ccc(CN(C)c2ccc(-c3csc(CN(CC(=O)O)Cc4ccccc4)n3)cc2)cc1` [Example 3-39], 149 to 151 °C.
Take `CN(Cc1ccc(SCC(C)(C)C)cc1)c1ccc(-c2csc(CN(CC(=O)O)Cc3ccccc3)n2)cc1` [Example 3-41]: the melting point was found to be 143 °C.
As to `CC(C)CCSc1ccc(CN(C)c2ccc(-c3csc(CN(CC(=O)O)Cc4ccccc4)n3)cc2)cc1` [Example 3-42], the melting point worked out at 122 °C.
Compound `CCN(Cc1ccc(C(C)C)cc1)c1ccc(-c2csc(CN(CC(=O)O)Cc3ccc(C(C)C)cc3)n2)cc1` [Example 3-44] displayed a melting point of 74 to 78 °C.
`CC(C)c1ccc(CN(CC(=O)O)Cc2nc(-c3ccc(N(Cc4ccc(C(C)C)cc4)C(C)C)cc3)cs2)cc1` [Example 3-45]: the melting point was 77 to 82 °C.
Turning to `CC(C)c1ccc(CN(c2ccc(-c3csc(CN(CC(=O)O)Cc4ccc(C(C)(C)C)cc4)n3)cc2)C(C)C)cc1` [Example 3-46], the melting point is 82 to 87 °C.
On to `CC(C)Cc1ccc(CN(C)c2ccc(-c3csc(CN(CC(=O)O)Cc4ccc(Cl)cc4)n3)cc2)cc1` [Example 3-47], for which the melting point was 153 to 157 °C.
`CCCC(CCC)c1ccc(CN(CC(=O)O)Cc2nc(-c3ccc(N(C)Cc4ccccc4)cc3)cs2)cc1` [Example 3-48] returned a melting point of 137 to 140 °C.
For `CN(Cc1ccccc1)c1ccc(-c2csc(CN(CC(=O)O)Cc3ccc(Cl)cc3)n2)cc1` [Example 3-49] the value was 140 to 142 °C; for `CN(Cc1ccccc1)c1ccc(-c2csc(CN(CC(=O)O)Cc3ccccc3Cl)n2)cc1` [Example 3-50], 132 to 134 °C; for `CN(Cc1ccccc1)c1ccc(-c2csc(CN(CC(=O)O)Cc3ccc(Cl)c(Cl)c3)n2)cc1` [Example 3-51], 69 to 72 °C.
The compound `CN(Cc1ccccc1)c1ccc(-c2csc(CN(CC(=O)O)Cc3cccc4ccccc34)n2)cc1` [Example 3-54] returned a melting point of 78 to 83 °C.
`CN(Cc1ccccc1)c1ccc(-c2csc(CN(CC(=O)O)Cc3ccc4ccccc4n3)n2)cc1` [Example 3-55]: the melting point lay within 144 to 147 °C.
`CN(Cc1ccccc1)c1ccc(-c2csc(CN(CC(=O)O)C(=O)Cc3csc4ccccc34)n2)cc1` [Example 3-56] registered a melting point of 186 to 188 °C.
With `CC(C)Cc1ccc(CN(C)c2ccc(-c3csc(CN(CC(=O)O)C(=O)Cc4ccc(Cl)cc4)n3)cc2)cc1` [Example 3-57], the melting point lay in the range of 150 to 152 °C.
To `CC(C)CC(=O)N(CC(=O)O)Cc1nc(-c2ccc(N(C)Cc3ccc(CC(C)C)cc3)cc2)cs1` [Example 3-59] belongs 117 to 118 °C; to `CN(Cc1ccc(CC(C)(C)C)cc1)c1ccc(-c2csc(CN(CC(=O)O)C(=O)Nc3ccccc3)n2)cc1` [Example 3-60], 152 to 153 °C.
Take `CC(C)Cc1ccc(CN(C)c2ccc(-c3csc(CN(CC(=O)O)C(=O)c4ccccc4)n3)cc2)cc1` [Example 3-61]: the melting point was in the range of 143 to 145 °C.
To `CCCC(CCC)c1ccc(CN(C)c2ccc(-c3csc(CN(CC(=O)O)C(=O)c4ccc(C)cc4)n3)cc2)cc1` [Example 3-62] belongs 114 to 117 °C; to `CCCC(CCC)c1ccc(CN(C)c2ccc(-c3csc(CN(CC(=O)[O-])C(=O)c4ccc(C(C)C)cc4)n3)cc2)cc1.[Na+]` [Example 3-63], 183 to 188 °C.
For `CN(Cc1ccc(C2CCCCC2)cc1)c1ccc(-c2csc(CN3CCCC(C(=O)O)C3)n2)cc1` (stereo not drawn) [Example 3-66] the value was 176 to 180 °C; for `CC(C)CCC1(C(=O)O)CCN(Cc2nc(-c3ccc(N(C)Cc4ccc(C5CCCCC5)cc4)cc3)cs2)CC1` [Example 3-68], 233 to 235 °C.
`CC(C)Cc1ccc(CN(C)c2ccc(-c3csc(CN4Cc5ccccc5CC4C(=O)O)n3)cc2)cc1` (stereo not drawn) [Example 3-72] had a melting point of 168 to 170 °C.
Compound `CN(Cc1ccc(CC(C)(C)C)cc1)c1ccc(-c2csc(CN3Cc4ccccc4CC3C(=O)O)n2)cc1` (stereo not drawn) [Example 3-74] came in with a melting point of 175 to 177 °C.
Turning to `CN(Cc1ccc(C2CCCCC2)cc1)c1ccc(-c2csc(N(C)Cc3ccc(C(=O)O)o3)n2)cc1` [Example 3-75], the melting point lay in the range of 158 to 161 °C.
`CN(Cc1ccc(C2CCCCC2)cc1)c1ccc(-c2csc(CNC(C(=O)O)c3ccccc3)n2)cc1` (stereo not drawn) [Example 3-77] showed a melting point of 183 to 186 °C.
Consider `CC(NCc1nc(-c2ccc(N(C)Cc3ccc(C4CCCCC4)cc3)cc2)cs1)C(=O)O` (stereo not drawn) [Example 3-78], for which the melting point fell in the range of 135 to 138 °C.
To `CC(C)Cc1ccc(CN(C)c2ccc(-c3csc(CNC(Cc4ccc(Cl)cc4)C(=O)O)n3)cc2)cc1` (stereo not drawn) [Example 3-79] belongs 199 to 204 °C; to `CN(CC(=O)O)Cc1nc(-c2ccc(N(C)Cc3ccc(C4CCCCC4)cc3)cc2)cs1` [Example 3-80], 152 to 155 °C; to `CN(Cc1ccc(C2CCCCC2)cc1)c1ccc(-c2csc(CN(C)c3ccc(C(=O)O)cn3)n2)cc1` [Example 3-84], 226 to 228 °C.
For `CC(C)Cc1ccc(CN(C)c2ccc(-c3csc(CN(C)C(Cc4ccccc4)C(=O)O)n3)cc2)cc1` (stereo not drawn) [Example 3-85] the value was 138 to 139 °C; for `CN(Cc1ccc(CC(C)(C)C)cc1)c1ccc(-c2csc(CN(C)C(C(=O)O)c3ccccc3)n2)cc1` (stereo not drawn) [Example 3-88], 171 to 173 °C.
For `CN(Cc1ccc(CC(C)(C)C)cc1)c1ccc(-c2csc(CN(C)C(Cc3ccccc3)C(=O)O)n2)cc1` (stereo not drawn) [Example 3-89] the value was 160 to 161 °C; for `CC(C)CCN(CC(=O)O)Cc1nc(-c2ccc(N(C)Cc3ccc(C4CCCCC4)cc3)cc2)cs1` [Example 3-91], 153 to 154 °C; for `CC(C)CCN(CC(=O)O)Cc1nc(-c2ccc(N(C)Cc3ccc(CC(C)C)cc3)cc2)cs1` [Example 3-93], 155 to 156 °C.
In turn, `CCCC(CCC)c1ccc(CN(C)c2ccc(-c3csc(COc4cncc(C(=O)O)c4)n3)cc2)cc1` [Example 3-94] returned a melting point of 178 to 181 °C.
To `CCCC(CCC)c1ccc(CN(C)c2ccc(-c3csc(COc4ccc(C(=O)O)cc4)n3)cc2)cc1` [Example 3-95] belongs 175 to 177 °C; to `CCCC(CCC)c1ccc(CN(C)c2ccc(-c3csc(CSc4ccc(C(=O)O)cc4)n3)cc2)cc1` [Example 3-96], 126 to 127 °C; to `CN(Cc1ccc(C2CCCCC2)cc1)c1ccc(-c2csc(CNS(=O)(=O)c3ccc(C(=O)O)cc3)n2)cc1` [Example 3-97], 202 to 203 °C.
For `CN(Cc1ccc(C2CCC(C)(C)CC2)cc1)c1ccc(-c2csc(CN(C)S(=O)(=O)CC(=O)O)n2)cc1` [Example 3-99], the melting point lay within 184 to 190 °C.
In the case of `CN(Cc1ccc(C2CCCCC2)cc1)c1ccc(-c2csc(CN(C)S(=O)(=O)c3cccc(C(=O)O)c3)n2)cc1` [Example 3-101], the melting point fell in the range of 164 to 166 °C.
Regarding `CN(Cc1ccc(C2CCCCC2)cc1)c1ccc(-c2csc(CN(C)S(=O)(=O)CC(=O)O)n2)cc1` [Example 3-102], the melting point fell in the range of 178 to 183 °C.
Turning to `CC(C)CN(Cc1nc(-c2ccc(N(C)Cc3ccc(C4CCCCC4)cc3)cc2)cs1)S(=O)(=O)CC(=O)O` [Example 3-104], the melting point is 104 to 110 °C.
Compound `CN(Cc1nc(-c2ccc(N(C)Cc3ccc(C4CCCCC4)cc3)cc2)cs1)C(=O)c1ccc(C(=O)O)cc1` [Example 3-107] had a melting point of 162 to 164 °C.
To `CN(Cc1nc(-c2ccc(N(C)Cc3ccc(C4CCCCC4)cc3)cc2)cs1)C(=O)NCC(=O)O` [Example 3-109] belongs 149 to 150 °C; to `O=C(O)CN(CC1CCCCC1)c1nc(-c2nc3ccc(OCc4ccc(Cl)c(Cl)c4)cc3o2)cs1` [Example 3-110], 198 to 200 °C.
For `CN(Cc1ccc(C2CCCCC2)cc1)c1ccc(-c2csc(CN3CCN(CC(=O)O)CC3)n2)cc1` [Example 3-111], the melting point was in the range of 190 to 191 °C.
